Measurements taken from patent publication US9155691B2, “Composition for reducing skin wrinkles including PDE5 inhibitor” (SK Chemicals Co., Ltd., priority 2010, dated 2015).

Key:
[1] = tested on: UVB-induced skin wrinkles of hairless mice; assay: Wrinkle reduction in the skin of UVB-irradiated hairless mice (photographs); type: in vivo
Description: An examination was made as to whether the PDE5 inhibitors can substantially reduce skin wrinkles of animal models. Hairless mice, aged 7 weeks, were irradiated with UVB (290-320 nm, 312 nm) to induce wrinkles. The compound or the control was applied to each mouse and its influence on the induced wrinkles was evaluated. More specifically, the mice were irradiated with 60 mJ/cm^2 (1 minimal […] dose (MED)) for 3 days weekly during the first and second week after wrinkling, 120 mJ/cm^2 (2 MED) for 3 days during the third week after wrinkling, 180 mJ/cm^2 (3 MED) for 3 days during the fourth week after wrinkling, 240 mJ/cm^2 (4 MED) for 3 days weekly during the fifth to eighth week after wrinkling, and 240 mJ/cm^2 (4 MED) for 5 days weekly during the ninth to fifteenth week after wrinkling. During the sixteenth and seventeenth week after wrinkling, about 0.5 ml of squalene-OOH, an oxidation product of squalene by UV irradiation, was applied once using a brush to induce deeper wrinkles. […]

[2] = tested on: Normal human dermal fibroblasts (NHDFs); assay: Stimulatory effect on collagen production: synthesis rate of procollagen type I (C-peptide EIA, corrected for total protein); type: cell-based; conditions: NHDF, 48 hr, negative control 100.0±0.0%
Description: In this example, stimulatory effects of major PDE5 inhibitors on collagen production were investigated in order to determine whether the PDE5 inhibitors are effective in reducing skin wrinkles. Collagen is a very important substance involved in the regulation of wrinkles. Collagen disruption is known to lead to the formation of wrinkles. Collagen production plays an important role in the reduction of wrinkles.
Normal human dermal fibroblasts (NHDFs) were cultured in a complete medium. 400 μl (1×10^5 cells) of the NHDF culture was placed in each well of a 48-well plate and were cultured in an incubator (MCO-20 AIC, Sanyo, Japan) at 37 C.° and 5% CO2 for 24 hr. After completion of culturing, the culture fluid was discarded from the wells. 500 μl of D-phosphate buffered saline (D-PBS) was added to each well for washing. Thereafter, 800 μl of a test substance and 800 μl of a positive control were added to the corresponding wells. 800 μl of a serum-free medium supplemented with DMSO was added to the wells of a negative control. The culture was continued in an incubator at 37 C.° and 5% CO2 for 48 hr. After culturing was completed, the culture fluids were collected from the wells, followed by centrifugation (25 C.°, 3,000 rpm, 10 min). The supernatants were used for the quantification of procollagen type I. After 1 mL of D-PBS was added to each well of the plate, from which the culture fluids had been removed, for washing, 30 μl of a cell lysis buffer (Lot No.: 41, Cell Signaling Technology, U.S.A) was added to each well. The plate was frozen during storage in a deep freezer (DFU-657CL, Operon, Korea) at −70 C.° for 2 hr, and thawed at room temperature. The freeze-thaw procedure was repeated twice to lyse the cells. Each of the cell lysates was collected and centrifuged (Micro 17TR, Hanil Science Industrial, Korea) (4 C.°, 13000 rpm, 30 min). The supernatant was used for total protein quantification.
40 μl of the obtained supernatant was added to each well of a 96-well plate. A standard solution from a BCA protein assay kit (Lot No.: KK140637, Pierce Biotechnology Inc., USA) was diluted stepwise to different concentrations (250, 125, 50, 25, 5 and 0 μg/mL). 40 μl of the dilute solution was added to each well. 160 μl of a reagent mixture from the assay kit was added to each well. Thereafter, the resulting mixtures were allowed to react in an incubator (NB-201V, n-Biotec, Korea) at 60 C.° for 30 min. After completion of the reaction, the absorbance of each well was measured at 562 nm using an ELISA reader (PowerWave XS, BioTek Instruments, Inc., USA). The amounts of total proteins in the wells containing the test substance, the positive control and the negative control were determined by substituting the absorbance value of each well into the standard curve equation.
100 μl of the obtained supernatant was added to each well of a 96-well plate from a procollagen type I C-peptide EIA kit (Lot No.: AB01520C, Takara Bio Inc., Japan). A standard solution from the kit was diluted stepwise to different concentrations (640, 320, 160, 80, 40, 20, 10 and 0 ng/mL). 100 μl of the dilute solution was added to each well. Thereafter, the resulting mixtures were allowed to react in an incubator at 37 C.° for 2 hr. The reaction solution was discarded from each well. The well was washed with 400 μl of PBS (×3). 100 μl of solution 1 from the kit was added to each well. The reaction was carried out at 37 C.° for 1 hr. After completion of the reaction, the reaction solution was discarded from each well and 400 μl of PBS was added to the well for washing (×4). 100 μl of a tetramethylbenzidine (TMBZ) substrate solution from the kit was added to each well. The reaction was carried out at 30 C.° for 15 min. Thereafter, 100 μl of 1 N H2SO4 solution was added to each well to stop the reaction. The absorbance of each well was measured at 450 nm using an ELISA reader. […]

[3] = 10 mM (about 5%), applied to skin twice daily for 14 days, n=7

Row | Compound | Skin condition after application (cornified layers) ([1]; 0.05%, applied to skin twice, later once daily, n=6) | Synthesis rate of procollagen type I ([2]; 10 nM, mean of three repeats) | Synthesis rate of procollagen type I ([2]; 100 nM, p<0.01) | Skin condition after application [1, 3] | Wrinkle reduction (skin photographs) [1, 3]
1 | CC1=C(/C=C/C(C)=C/C=C/C(C)=C/C(=O)O)C(C)(C)CCC1 [retinoic acid] | Cornified layers were formed and continuously peeled | – | – | – | –
2 | CCCc1nc(C)c2c(=O)[nH]c(-c3cc(S(=O)(=O)N4CCN(CC)CC4)ccc3OCC)nn12 [vardenafil] | – | 140.7±7.8% | 162.7±10.0% | – | –
3 | CCCc1nn(C)c2c(=O)[nH]c(-c3cc(S(=O)(=O)N4CCN(C)CC4)ccc3OCC)nc12 [sildenafil] | – | 108.6±8.1% | 160.7±12.1% | gradually became clean | Wrinkle reduction was observed
4 | CN1CC(=O)N2[C@H](c3ccc4c(c3)OCO4)c3[nH]c4ccccc4c3C[C@@H]2C1=O [tadalafil] | – | 147.2±8.1% | 174.7±10.2% | – | –
